Data published in article PMC6264549, “Synthesis and Biological Evaluation of 3-Substituted-indolin-2-one Derivatives Containing Chloropyrrole Moieties” (Molecules, 2011).

Key:
[1] = test system: non-small cell lung cancer (A549); assay: MTT cell growth inhibition assay, A549; type: cell-based; details: Homo sapiens, 48 h, A549 cells, two days, read-out: IC50 ± SD A549
Procedure: (§1) The antitumor activities of 14a-r were evaluated in vitro on four tumor cell lines, including non-small cell lung cancer (A549), oral epithelial (KB), melanoma (K111) and large cell lung cancer cell lines (NCI-H460) by the MTT assay, and the results are summarized in Table 1.
(§2) Non-small cell lung cancer (A549), oral epithelial (KB), large cell lung cancer (NCI-H460) and melanoma cell lines (K111) were cultured in Dulbecco’s modified Eagle medium (GIBCO) containing 10% (v/v) inactivated newborn calf serum (Boren Bio-Pharmaceutical Co., Ltd.: Guangzhou, China), […] L-glutamine (SANGON), […] penicillin, 100 µg/mL streptomycin. Cells were grown in a 5% CO2 incubator at 37 °C.
(§3) The antitumor activities were determined by the MTT assay. Cells (2 × 10^3 cells/well) were seeded in 96-well plates. After incubation overnight, each compound, which was dissolved in dimethylsulfoxide (DMSO) and diluted with phosphate buffer solution (PBS), was added to each well and the cells were cultured for another two days at 37 °C. 20 μL (5 mg/mL) MTT solution was added to per well and the culture continued for another 3–4 h. The medium was removed and 100 μL DMSO was added to dissolve formazan crystals. Absorbance was measured at 492 nm using an ELISA reader (Thermo). The antitumor activities were expressed as IC50.

[2] = test system: oral epithelial (KB); assay: MTT cell growth inhibition assay, KB; type: cell-based; details: Homo sapiens, 48 h, KB cells, two days
Procedure: as §1, §2, §3

[3] = test system: melanoma (K111); assay: MTT cell growth inhibition assay, K111; type: cell-based; details: 48 h, K111 cells, two days, read-out: IC50 ± SD K111
Procedure: as §1, §2, §3

[4] = test system: large cell lung cancer cell lines (NCI-H460); assay: MTT cell growth inhibition assay, NCI-H460; type: cell-based; details: Homo sapiens, 48 h, NCI-H460 cells, two days, read-out: IC50 ± SD NCI-H460
Procedure: as §1, §2, §3

[5] = sunitinib-treated patients, pivotal phase III metastatic renal cell carcinoma trial; cited from earlier work
[6] = molecular target: VEGFR2 tyrosine kinase (Homo sapiens, UniProt P35968); assay: VEGFR2 inhibition assay (ELISA); type: biochemical; details: 5.0 µM ATP, Poly (Glu, Tyr)4:1 substrate, read-out: IC50 ± SD VEGFR2
VEGFR2 tyrosine kinase, sequence (P35968 20-1356): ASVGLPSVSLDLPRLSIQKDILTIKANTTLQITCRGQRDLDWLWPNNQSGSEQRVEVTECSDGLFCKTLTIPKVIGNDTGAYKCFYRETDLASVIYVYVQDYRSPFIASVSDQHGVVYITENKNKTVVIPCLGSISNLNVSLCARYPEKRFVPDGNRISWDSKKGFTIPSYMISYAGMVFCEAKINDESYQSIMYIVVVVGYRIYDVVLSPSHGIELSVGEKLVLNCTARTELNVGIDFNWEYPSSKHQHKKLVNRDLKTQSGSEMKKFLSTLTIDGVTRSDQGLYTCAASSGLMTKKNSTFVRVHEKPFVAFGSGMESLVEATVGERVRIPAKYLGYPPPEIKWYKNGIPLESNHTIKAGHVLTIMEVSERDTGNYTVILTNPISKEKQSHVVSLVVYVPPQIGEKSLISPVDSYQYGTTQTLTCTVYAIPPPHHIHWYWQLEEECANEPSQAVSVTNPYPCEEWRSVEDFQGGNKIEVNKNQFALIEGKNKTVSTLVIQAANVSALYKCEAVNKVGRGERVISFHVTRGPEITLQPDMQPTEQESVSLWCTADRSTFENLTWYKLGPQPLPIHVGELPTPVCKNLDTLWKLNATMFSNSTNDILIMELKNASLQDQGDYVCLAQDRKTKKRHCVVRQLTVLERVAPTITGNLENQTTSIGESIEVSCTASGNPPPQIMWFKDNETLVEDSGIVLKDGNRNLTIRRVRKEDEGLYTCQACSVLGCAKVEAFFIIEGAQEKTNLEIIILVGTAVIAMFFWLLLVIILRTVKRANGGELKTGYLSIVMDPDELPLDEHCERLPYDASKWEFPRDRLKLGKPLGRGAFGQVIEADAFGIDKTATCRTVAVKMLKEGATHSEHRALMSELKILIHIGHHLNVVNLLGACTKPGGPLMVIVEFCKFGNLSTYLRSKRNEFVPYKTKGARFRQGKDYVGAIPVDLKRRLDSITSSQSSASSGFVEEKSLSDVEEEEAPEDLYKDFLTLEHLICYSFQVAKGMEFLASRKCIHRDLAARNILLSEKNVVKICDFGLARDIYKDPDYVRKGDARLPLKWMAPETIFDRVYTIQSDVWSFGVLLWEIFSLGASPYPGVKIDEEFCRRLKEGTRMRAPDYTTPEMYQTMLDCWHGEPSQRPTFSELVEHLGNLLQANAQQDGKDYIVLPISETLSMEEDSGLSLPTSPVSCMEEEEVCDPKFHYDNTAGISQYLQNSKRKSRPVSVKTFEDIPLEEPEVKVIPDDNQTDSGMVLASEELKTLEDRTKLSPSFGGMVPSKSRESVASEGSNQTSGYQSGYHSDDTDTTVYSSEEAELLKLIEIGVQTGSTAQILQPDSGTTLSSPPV
Procedure: Seven compounds in the 14a–r series with low IC50 values on the tumor cell lines were evaluated for their inhibition of VEGFR2 using an enzyme-linked immunosorbent assay (ELISA), and the data are summarized in Table 2.
The VEGFR2 inhibition assay was performed by enzyme-linked immunosorbent assay (ELISA) in 96-well plates pre-coated with 2.5 µg/well Poly (Glu, Tyr)4:1 as a substrate. Each well was treated with 90 µL of 5.0 µM ATP (Amresco) solution and 10 µL of one of the seven compounds at varying concentrations, which were diluted in reaction buffer (50 mM HEPES pH 7.4, 20 mM MgCl2, 0.1 mM Na3VO4, 1 mM DTT). […] The reaction was initiated by adding 1 µL/well of VEGFR2 tyrosine kinase. After incubation for 1 h at 37 °C, the plates were washed three times with phosphate buffered saline containing 0.1% Tween-20 (T-PBS). Next, anti-phosphotyrosine (PY99; 1:1,000 dilution, 100 μL/well) antibody was added. After 1 h incubation at room temperature, the plates were washed three times, and goat anti-mouse IgG horseradish peroxidase (100 μL/well of 1:2,000 dilution) diluted in T-PBS was added. The plates were reincubated at room temperature for 1 h, and washed as before. Finally, color development solution (0.03% H2O2 and 2 mg/mL o-phenylenediamine in 0.1 M citrate buffer, pH 5.5, 100 µL/well) was added and the plates were incubated at room temperature until color emerged. The reaction was terminated by the addition of 2 M H2SO4 (50 µL/well), and A492 was measured using a tunable wavelength microplate reader (Molecular Devices SPECTRAMAX190). The inhibition rate was calculated using the equation: [1 − (A492/A492 control)] × 100%.

[7] = molecular target: hERG potassium currents (Homo sapiens, UniProt Q12809); assay: Inhibition of hERG potassium currents in HEK239 cells (cardiotoxicity)
hERG potassium currents, sequence (Q12809 whole entry): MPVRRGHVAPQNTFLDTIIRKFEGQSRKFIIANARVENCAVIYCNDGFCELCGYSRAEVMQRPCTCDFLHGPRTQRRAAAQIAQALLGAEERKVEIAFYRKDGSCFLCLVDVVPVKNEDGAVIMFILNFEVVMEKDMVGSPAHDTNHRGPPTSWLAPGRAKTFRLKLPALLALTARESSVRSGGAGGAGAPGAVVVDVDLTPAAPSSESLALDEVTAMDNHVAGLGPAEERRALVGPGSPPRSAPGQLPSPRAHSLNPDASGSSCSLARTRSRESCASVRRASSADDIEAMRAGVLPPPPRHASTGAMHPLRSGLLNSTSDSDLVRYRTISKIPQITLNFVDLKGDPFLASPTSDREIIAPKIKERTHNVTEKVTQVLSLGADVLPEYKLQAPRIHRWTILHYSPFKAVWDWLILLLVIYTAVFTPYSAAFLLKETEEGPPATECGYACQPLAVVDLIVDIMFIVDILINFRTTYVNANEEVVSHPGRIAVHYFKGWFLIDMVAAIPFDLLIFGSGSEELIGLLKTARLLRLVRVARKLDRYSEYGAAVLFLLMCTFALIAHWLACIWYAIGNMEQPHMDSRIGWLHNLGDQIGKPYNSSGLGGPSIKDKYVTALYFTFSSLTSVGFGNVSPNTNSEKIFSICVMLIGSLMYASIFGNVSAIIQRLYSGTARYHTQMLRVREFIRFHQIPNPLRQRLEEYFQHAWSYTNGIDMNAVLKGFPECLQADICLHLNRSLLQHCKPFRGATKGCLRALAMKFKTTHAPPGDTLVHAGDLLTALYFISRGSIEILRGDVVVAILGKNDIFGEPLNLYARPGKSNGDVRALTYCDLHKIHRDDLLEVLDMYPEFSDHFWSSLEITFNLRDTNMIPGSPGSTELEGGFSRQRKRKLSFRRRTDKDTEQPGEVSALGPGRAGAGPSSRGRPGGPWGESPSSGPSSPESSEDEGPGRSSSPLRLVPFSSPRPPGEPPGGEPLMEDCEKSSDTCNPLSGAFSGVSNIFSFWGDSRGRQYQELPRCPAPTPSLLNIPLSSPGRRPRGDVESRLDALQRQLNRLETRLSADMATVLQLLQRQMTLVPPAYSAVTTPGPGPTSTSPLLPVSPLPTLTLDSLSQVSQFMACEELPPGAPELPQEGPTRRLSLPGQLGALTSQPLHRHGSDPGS

Structure (SMILES)	IC50 [1]	IC50 [2]	IC50 [3]	IC50 [4]	patients who experienced a decline in LVEF to below normal [5]	IC50 [6]	melting point	IC50 [7]
CCN(CC)CCNC(=O)c1c(C)[nH]c(/C=C2\C(=O)Nc3ccc(F)cc32)c1C [Sunitinib, sunitinib, reference compound]	2930 ± 250 nM	2600 ± 180 nM	3830 ± 430 nM	4790 ± 620 nM	21%			
CCN(CC)CCNC(=O)c1c(C)[nH]c(/C=C2\C(=O)Nc3ccc(F)cc32)c1Cl [Compound 14h, (Z)-4-Chloro-N-(2-(diethylamino)ethyl)-5-((5-fluoro-2-oxoindolin-3-ylidene)methyl)-2-methyl-1H-pyrrole-3-carboxamide]	1870 ± 260 nM	1250 ± 100 nM	1790 ± 120 nM	32100 ± 3830 nM		6.8 ± 0.8 nM	245.6 to 246.9 °C	452 nM
